Assay results from patent US20230000848A1, “METHODS OF TREATING NASH” (Gilead Sciences, Inc., priority 2021, published 2023).

Key:
liver cytokine levels [1] = test: Liver cytokine levels by ELISA from liver lysates, GAN mouse model; type: in vivo, mice
Procedure: (§1) The effect of COT inhibitor Compound A, ACC inhibitor Compound B, Cenicriviroc (CVC), and the combination of Compound A and Compound B in the Gubra amylin NASH mouse model (GAN) was determined.

liver cytokine levels [2] = test: Liver cytokine levels by ELISA from liver lysates, rat CDHFD model; type: in vivo, Male Wistar Han Rats; settings: TPL2i = group 4, TPL2i+ACCi = group 6, vs vehicle
Procedure: (§2) Compound A and Compound B were studied in a Choline Deficient High Fat Diet (CDHFD) model as described below. Rats enrolled in this study were first fed a choline deficient high fat diet (CDHFD) for 42 days prior to test article administration Animals were then split into treatment groups 1-8 and test article was administered as detailed in Table 1 for 42 days.

[3] = system: Choline Deficient High Fat Diet (CDHFD) model of fatty liver; test: Liver hydroxyproline (OH-P) content, rat CDHFD model; type: in vivo, Male Wistar Han Rats; settings: 100 mg/Kg PO BID (treatment group 4), 42 days, vs vehicle group 2
Procedure: as §2
Liver tissue obtained at the end of the study was subjected to picrosirius red staining (PSR) was assessed according to standard techniques. Liver hydroxyproline content was measured from cryopowdered liver tissue. Chloramine-T was used to oxidize the free hydroxyproline for the production of a pyrrole. Addition of Ehrlich's reagent results in the formation of a chromophore that can be measured at 550 nm on a spectramax plate reader.
FIG. 3 plots liver hydroxyproline (OH—P) content from liver tissue for control (treatment group 1), start and end for the vehicle (treatment group 2), COT inhibitor (Compound A referred to as TPL2i, low dose=100 mg/Kg QD, high dose=100 mg/Kg BID), ACC inhibitor (Compound B referred to as ACCi, 10 mg/kg QD), and coadministration of Compound B with Compound A (treatment group 5 (TPL2i low dose+ACCi) and treatment group 6 (TPL2i high dose+ACCi)). Liver hydroxyproline (OH—P) content was calculated from liver tissue samples. […]

[4] = Body weight, Gubra amylin NASH (GAN) mouse model; type: in vivo, mice; settings: 60 mg/kg PO BID, after 84 days of dosing
Procedure: as §1
FIG. 5 plots the body weight of treatment group 1 (wt), vehicle (treatment group 2), COT inhibitor (Compound A, 60 mg/kg BID), ACC inhibitor (Compound B, 10 mg/Kg QD), and combination of Compound A and Compound B (treatment group 4) in the Gubra amylin NASH (GAN) mouse model. Cenicriviroc (CVC) used as a control (100 mg/Kg QD).

[5] = system: Gubra amylin NASH (GAN) mouse model; test: Liver total cholesterol, GAN mouse model; type: in vivo, mice; settings: treatment group 3 (60 mg/kg BID)
Procedure: as §1
FIG. 12 plots the liver total cholesterol levels for treatment group 1 (wt), vehicle (treatment group 2), COT inhibitor (Compound A, treatment group 3), ACC inhibitor (Compound B, treatment group 5), and combination of Compound A and Compound B (treatment group 4) in the Gubra amylin NASH (GAN) mouse model. Cenicriviroc (CVC) used as a control (treatment group 6). Total cholesterol levels were calculated from was measured using commercial kits (Roche Diagnostics) on the cobas c 501 autoanalyzer according to the manufacturer's instructions.

[6] = system: Gubra amylin NASH (GAN) mouse model; test: NAFLD activity score from H&E stained liver sections, GAN mouse model; type: in vivo, mice; settings: 60 mg/kg BID
Procedure: The effect of COT inhibitor Compound A, ACC inhibitor Compound B, Cenicriviroc (CVC), and the combination of Compound A and Compound B in the Gubra amylin NASH mouse model (GAN) was determined. [table] FIG. 10 plots NAFLD activity score of Compound A (60 mg/kg BID), Compound B (10 mg/Kg QD), CVC (100 mg/Kg QD), and the combination Compound A and Compound B in from liver tissue the Gubra amylin NASH mouse model. CVC=Cenicriviroc, used as a control (100 mg/Kg QD). Individual components comprising the NAFLD score includes hepatocellular ballooning (FIG. 11A), lobular inflammation (FIG. 11B), and steatosis score (FIG. 11C). NAFLD activity score was determined by scoring of steatosis, inflammation, and hepatocyte ballooning from hematoxylin and eosin stained liver sections.

[7] = system: Gubra amylin NASH (GAN) mouse model; test: Picrosirius red staining (PSR) of liver tissue, GAN mouse model; type: in vivo, mice
Procedure: as §1
FIG. 8 plots liver fibrosis levels based on percent PSR for treatment group 1 (wt), vehicle (treatment group 2), COT inhibitor (Compound A, treatment group 3), ACC inhibitor (Compound B, treatment group 5), and combination of Compound A and Compound B (treatment group 4) in the Gubra amylin NASH (GAN) mouse model. Cenicriviroc (CVC) used as a control (treatment group 6).

[8] = system: Choline Deficient High Fat Diet (CDHFD) model of fatty liver; test: Picrosirius red staining (PSR) of liver tissue, rat choline deficient high fat diet (CDHFD) model; type: in vivo, Male Wistar Han Rats; settings: for fibrosis as measured by PSR, decrease relative to vehicle: vs vehicle group 2
Procedure: Compound A and Compound B were studied in a Choline Deficient High Fat Diet (CDHFD) model as described below. Rats enrolled in this study were first fed a choline deficient high fat diet (CDHFD) for 42 days prior to test article administration Animals were then split into treatment groups 1-8 and test article was administered as detailed in Table 1 for 42 days. [table] Liver tissue obtained at the end of the study was subjected to picrosirius red staining (PSR) was assessed according to standard techniques. Liver hydroxyproline content was measured from cryopowdered liver tissue. Chloramine-T was used to oxidize the free hydroxyproline for the production of a pyrrole. Addition of Ehrlich's reagent results in the formation of a chromophore that can be measured at 550 nm on a spectramax plate reader. FIG. 2 plots the PSR (% area) for control (treatment group 1), start and end for the vehicle (treatment group 2), COT inhibitor (Compound A referred to as TPL2i, 100 mg/Kg QD (low dose), 100 mg/Kg BID (high dose)), ACC inhibitor (Compound B referred to as ACCi, 10 mg/kg QD), and coadministration of Compound B with Compound A (treatment groups 5 and 6). Data in FIG. 2 is based on all animals in the treatment group. In FIG. 2, a higher value for PSR % area is reflective of a higher level of fibrosis.

[9] = Whole body fat mass by ECHO MRI, GAN mouse model; type: in vivo, mice; settings: 60 mg/kg PO BID, after 84 days of dosing
Procedure: as §1
FIG. 6 plots the percent fat mass of treatment group 1 (wt), vehicle (treatment group 2), COT inhibitor (Compound A, treatment group 3), ACC inhibitor (Compound B, treatment group 5), and combination of Compound A and Compound B (treatment group 4) in the Gubra amylin NASH (GAN) mouse model. Cenicriviroc (CVC) used as a control (treatment group 6). Fat mass was calculated by ECHO MRI.

[10] = system: Gubra amylin NASH (GAN) mouse model; test: Alpha-smooth muscle actin (aSMA) IHC on liver tissue, GAN mouse model; type: in vivo, mice; settings: treatment group 3 (60 mg/kg BID) vs vehicle group 2, % area IHC
Procedure: as §1
FIG. 9 plots the […] (aSMA) levels from liver tissue of treatment group 1 (wt), vehicle (treatment group 2), COT inhibitor (Compound A, treatment group 3), ACC inhibitor (Compound B, treatment group 5), and combination of Compound A and Compound B (treatment group 4) in the Gubra amylin NASH (GAN) mouse model. Cenicriviroc (CVC) used as a control (treatment group 6). Alpha-smooth muscle actin (aSMA) levels were calculated from % area of alpha-SMA antibody staining on liver tissue (IHC).

CCCCOCCOc1ccc(-c2ccc3c(c2)/C=C(/C(=O)Nc2ccc([S@@+]([O-])Cc4cncn4CCC)cc2)CCCN3CC(C)C)cc1 [CVC, Cenicriviroc, reference compound]
liver cytokine levels (liver cytokine levels [1]; treatment group 6 (100 mg/Kg)): Changes in cytokine levels were not observed

Cc1nc(F)ccc1[C@H](Nc1cc(Cl)c2ncc(C#N)c(NCC(C)(C)C)c2c1)c1cn(C2(C(F)F)CC2)nn1 [Compound A]
liver IL-1b level (liver cytokine levels [2]): statistically significant decreases | liver IL-10 level (liver cytokine levels [2]): statistically significant decreases | liver IL-18 level (liver cytokine levels [2]): statistically significant decreases | liver MIP1-α level (liver cytokine levels [2]): statistically significant decreases | reduction in liver hydroxyproline compared to vehicle [3]: 38% | body weight decrease [4]: 16% | Liver total cholesterol reduction [5]: 40% | NAFLD activity score at the end of the study compared to vehicle [6]: more animals had a lower NAFLD activity score | fibrosis measured by PSR, decrease compared to vehicle ([7]; 60 mg/kg PO BID (treatment group 3) vs vehicle group 2): 46% | PSR relative to Compound B alone ([7]; BID treatment): reduced PSR | liver IL-1β level (liver cytokine levels [1]; treatment group 3 vs vehicle): statistically significant decreases | liver KC/GRO level (liver cytokine levels [1]; treatment group 3 vs vehicle): statistically significant decreases | liver MCP-1 level (liver cytokine levels [1]; treatment group 3 vs vehicle): statistically significant decreases | liver TNF-α level (liver cytokine levels [1]; treatment group 3 vs vehicle): statistically significant decreases | fibrosis as measured by PSR, decrease relative to vehicle ([8]; 100 mg/Kg PO BID (treatment group 4, TPL2i high dose), 42 days): 55% | fibrosis as measured by PSR, decrease relative to vehicle ([8]; 100 mg/Kg PO QD (treatment group 3, TPL2i low dose), 42 days): 41% | liver fibrosis in PSR stained liver tissue (FIG. 1) compared to vehicle ([8]; treatment group 4 (100 mg/Kg BID) vs vehicle group 2): less liver fibrosis | fat mass decrease [9]: 31% | Alpha-smooth muscle actin (aSMA) levels, reduction compared to vehicle [10]: 41%

COc1ccccc1[C@H](Cn1c(=O)n(C(C)(C)C(=O)O)c(=O)c2c(C)c(-c3ncco3)sc21)O[C@H]1CC[C@@H](O)CC1 [Compound B]
PSR reduction ([8]; 10 mg/kg PO QD (treatment group 7), 42 days): 33%
